{"source": "ChEMBL document CHEMBL4308823", "about": "“Small Molecule Mitochondrial Uncouplers and Their Therapeutic Potential” (J Med Chem, 2018)", "key": {"Mus musculus [1]": {"test_system": "Mus musculus", "assay": "Antiobesity activity in high fat diet-induced obese C57BL/6 mouse assessed as reduction in fat mass at 50 umol/kg/day for 16 days relative to control", "type": "functional", "design": "scale not given: the % may be the effect or the level left"}, "Mus musculus [2]": {"test_system": "Mus musculus", "assay": "Antiobesity activity in high fat diet-induced obese C57BL/6 mouse assessed as reduction in body weight at 50 umol/kg/day for 16 days relative to control", "type": "functional", "design": "scale not given: the % may be the effect or the level left"}, "[3]": {"assay": "Toxicity in rat", "conditions": "in vivo"}, "[4]": {"assay": "Dissociation constant, pKa of compound"}, "[5]": {"assay": "Mitochondrial uncoupling activity in Arabidopsis root cells assessed as inhibition of clathrin-mediated endocytosis by measuring reduction of FM4-64 uptake", "type": "functional, mitochondria, Arabidopsis thaliana, Mitochondria"}, "Mus musculus [6]": {"test_system": "Mus musculus", "assay": "Anorectic activity in C57Bl/6J mouse assessed as reduction in fat mass at 30 umol/kg for 6 consecutive days relative to control", "type": "functional", "design": "scale not given: the % may be the effect or the level left"}, "[7]": {"assay": "Uncoupling activity in rat mitochondria assessed as increase in oxygen consumption by mitochondrial respiration assay", "type": "functional"}, "Mus musculus [8]": {"test_system": "Mus musculus", "assay": "Anorectic activity in C57Bl/6J mouse assessed as reduction in body weight at 30 umol/kg for 6 consecutive days relative to control", "type": "functional", "design": "scale not given: the % may be the effect or the level left"}, "Mus musculus [9]": {"test_system": "Mus musculus", "assay": "Antiobesity activity in high fat diet-induced obese C57BL/6J mouse assessed as reduction in body weight at 5 mg/kg, po administered via gavage treated 3 times per week for 6 weeks relative to control", "type": "functional", "design": "scale not given: the % may be the effect or the level left"}, "Mus musculus [10]": {"test_system": "Mus musculus", "assay": "Antiobesity activity in high fat diet-induced obese C57BL/6J mouse assessed as reduction in body fat mass at 5 mg/kg, po administered via gavage treated 3 times per week for 6 weeks relative to control", "type": "functional", "design": "scale not given: the % may be the effect or the level left"}, "HL-60": {"test_system": "HL-60", "assay": "Cytotoxicity against human HL60 cells after 24 to 48 hrs by MTT assay", "type": "cell-based"}, "[11]": {"assay": "Acute toxicity in C57BL/6J mouse administered via oral gavage", "conditions": "in vivo"}, "C2C12": {"test_system": "C2C12", "assay": "Cytotoxicity against mouse C2C12 cells after overnight incubation", "type": "cell-based"}, "[12]": {"assay": "Toxicity in po dosed rat", "type": "organism-based", "conditions": "in vivo"}, "Liver": {"test_system": "Liver", "assay": "Mitochondrial uncoupling activity in mouse liver mitochondria assessed as effect on succinoxldase coupled phosphorylation", "type": "functional"}, "in vivo": {"assay": "in vivo", "conditions": "mouse"}, "[13]": {"assay": "Toxicity in dog", "design": "species or system Canis lupus familiaris", "conditions": "in vivo"}, "[14]": {"assay": "Toxicity in human assessed as weight loss"}, "143B": {"test_system": "143B", "assay": "Cytotoxicity against human 143B cells after 24 hrs by LDH release assay", "type": "cell-based"}, "Hepatocyte": {"test_system": "Hepatocyte", "assay": "Cytotoxicity against Sprague-Dawley rat hepatocytes after 24 hrs by MTT assay", "type": "cell-based"}, "[15]": {"assay": "Acute toxicity in po dosed mouse", "type": "organism-based", "conditions": "in vivo"}, "HCT-116": {"test_system": "HCT-116", "assay": "Cytotoxicity against human HCT116 cells after 48 hrs by MTT assay", "type": "cell-based", "conditions": "HCT-116, 48 h"}}}
{"smiles": "CCCCCCCCCCCC[P+](c1ccccc1)(c1ccccc1)c1ccccc1", "values": [{"measurement": "Activity", "setting": "Mus musculus [1]", "value": 24, "unit": "%"}, {"measurement": "Activity", "setting": "Mus musculus [2]", "value": 12, "unit": "%"}]}
{"smiles": "NCCO.O=C(Nc1ccc([N+](=O)[O-])cc1Cl)c1cc(Cl)ccc1O", "values": [{"measurement": "LD50", "setting": "[3]", "value": 500, "unit": "mg/kg"}]}
{"smiles": "CC(C)(C)c1cc(Cl)cc(C(=O)Nc2ccc([N+](=O)[O-])cc2Cl)c1O", "values": [{"measurement": "pKa", "setting": "[4]", "value": 5.8}]}
{"smiles": "O=[N+]([O-])c1ccc(NS(=O)(=O)c2ccc(Br)s2)cc1", "values": [{"measurement": "IC50", "setting": "[5]", "value": 5, "unit": "µM"}]}
{"smiles": "CCCCOC(=O)c1ccccc1-c1c2cc(C)/c(=N\\CC)cc-2oc2cc(NCC)c(C)cc12", "values": [{"measurement": "Activity", "setting": "Mus musculus [6]", "value": 20, "unit": "%"}, {"measurement": "EC50", "setting": "[7]", "value": 1000, "unit": "nM"}, {"measurement": "Activity", "setting": "Mus musculus [8]", "value": 19, "unit": "%"}, {"measurement": "pKa", "setting": "[4]", "value": 7.3}]}
{"smiles": "O=C(Nc1cc(Cl)cc(Cl)c1)Nc1cc(Cl)cc(Cl)c1", "values": [{"measurement": "Activity", "setting": "Mus musculus [9]", "value": 16, "unit": "%"}, {"measurement": "Activity", "setting": "Mus musculus [10]", "value": 35, "unit": "%"}, {"measurement": "Activity", "setting": "HL-60", "value": "> 25", "unit": "µM"}]}
{"smiles": "CCOC(=O)C1=C(C)N=c2s/c(=C/c3cc(Br)c(O)c(Br)c3)c(=O)n2C1c1ccc(Cl)cc1", "note": "(configuration not stated)", "values": [{"measurement": "LD50", "setting": "[11]", "value": 12.7, "unit": "mg/kg"}]}
{"smiles": "O=[N+]([O-])c1ccc(OCc2ccc(OCCCC[P+](c3ccccc3)(c3ccccc3)c3ccccc3)cc2[N+](=O)[O-])c([N+](=O)[O-])c1", "values": [{"measurement": "Activity", "setting": "C2C12", "value": "> 5", "unit": "µM"}]}
{"smiles": "FC(F)(F)c1nc2c(Cl)c(Cl)c(Cl)c(Cl)c2[nH]1", "values": [{"measurement": "LD50", "setting": "[12]", "value": 1.6, "unit": "mg/kg"}, {"measurement": "pKa", "setting": "[4]", "value": "5.04 to 5.6"}]}
{"smiles": "O=[N+]([O-])c1cc(CCC[P+](c2ccccc2)(c2ccccc2)c2ccccc2)cc([N+](=O)[O-])c1O", "values": [{"measurement": "pKa", "setting": "[4]", "value": 4.48}]}
{"smiles": "N#CC(C#N)=NNc1ccc(OC(F)(F)F)cc1", "values": [{"measurement": "pKa", "setting": "[4]", "value": 6.2}, {"measurement": "EC50", "setting": "Liver", "value": 40, "unit": "nM"}, {"measurement": "LD50", "setting": "in vivo", "value": 8, "unit": "mg/kg"}]}
{"smiles": "O=[N+]([O-])c1ccc(O)c([N+](=O)[O-])c1", "note": "[2,4-DINITROPHENOL]", "values": [{"measurement": "LD50", "setting": "[12]", "value": 30, "unit": "mg/kg"}, {"measurement": "pKa", "setting": "[4]", "value": 4.1}, {"measurement": "LD50", "setting": "[13]", "value": 30, "unit": "mg/kg"}, {"measurement": "LD", "setting": "[14]", "value": "0.8 to 3", "unit": "g"}]}
{"smiles": "CCCCN1CCCCC1C(=O)Nc1c(C)cccc1C", "note": "(configuration not stated) [BUPIVACAINE]", "values": [{"measurement": "LD50", "setting": "[3]", "value": "4.25 to 12.7", "unit": "mg/kg"}, {"measurement": "pKa", "setting": "[4]", "value": 8.1}]}
{"smiles": "N#CC(C#N)=NNc1cccc(Cl)c1", "note": "[CARBONYL CYANIDE M-CHLOROPHENYLHYDRAZONE]", "values": [{"measurement": "EC50", "setting": "Liver", "value": 100, "unit": "nM"}]}
{"smiles": "COC1=C(OC)C(=O)C(CCCCCCCCCC[P+](c2ccccc2)(c2ccccc2)c2ccccc2)=C(C)C1=O", "note": "[MITOQUINONE CATION]", "values": [{"measurement": "Activity", "setting": "143B", "value": "> 10", "unit": "µM"}]}
{"smiles": "CC(C)(C)c1cc(C=C(C#N)C#N)cc(C(C)(C)C)c1O", "note": "[TYRPHOSTIN A9]", "values": [{"measurement": "IC50", "setting": "Hepatocyte", "value": "> 970", "unit": "nM"}, {"measurement": "pKa", "setting": "[4]", "value": 6.7}, {"measurement": "LD50", "setting": "[15]", "value": 29, "unit": "mg/kg"}, {"measurement": "IC50", "setting": "HCT-116", "value": "> 200", "unit": "nM"}]}
